The results in this text go back to patent US8962057B2, “Methods for improving taste and oral care compositions with improved taste” (The Procter & Gamble Company, priority 2009, dated 2015).

Like-named read-outs stand apart in the source and are kept apart here. Bounds are passed on as bounds.

For assay [1], the target named is T1, TRPV1 (Homo sapiens, UniProt Q8NER1).
T1 construct: expressed in transfected cells
In words: TRPV1 enhancement, enhancer added after TRPV1 activator capsaicin. It is filed as cell-based. The method, then: In order to determine whether TRPV1 is activated, the intracellular calcium ion (Ca^+2) levels in TRPV1 receptors is measured. […] (human embryonic kidney) cells stably transfected with human TRPV1 are grown in 15 ml growth medium [high glucose DMEM (Dulbecco's Modification of Eagle's Medium) supplemented with 10% FBS (fetal bovine serum), 100 μg/ml Penicillin/streptomycin, 100 μg/ml G418] in a 75 Cm^2 flask for 3 days at 33° C. in a mammalian cell culture incubator set at 5% CO2. Cells are detached with addition of 10 ml of PBS (phosphate buffered saline) by hand shaking gently. Cells are transferred to a 50 ml tube and centrifuged at 850 rpm for 3 minutes to remove PBS. After centrifugation, a pellet of cells is formed in the bottom of the tube separating them from the supernatant solution. […] Fluo-4 is a fluorescent dye used for quantifying cellular Ca^2+ concentrations in the 100 nM to 1 microM range. At the end of the 30 minutes, 45 ml of assay buffer [1×HBSS (Hank's Balanced Salt Solution), 20 mM HEPES (4-(2-Hydroxyethyl)-1-piperazineethanesulfonic acid)] is added to wash cells and the resulting combination is then centrifuged at 850 rpm for 3 minutes to remove excess buffer and Fluo-4 AM calcium indicator.
[…] […] For determining the direct effect of test compounds on TRPV1, fluorescence is measured immediately after addition of each compound.

A short description of assay [2]: Burning sensation on the standard Scoville hotness scale.
For assay [3], the target named is T1, TRPV1. In words: TRPV1 enhancement, TRPV1 activator VBE and enhancer added together. It is filed as cell-based. Conditions: VBE 3.5 microMolar. The procedure:
In order to determine whether TRPV1 is activated, the intracellular calcium ion (Ca^+2) levels in TRPV1 receptors is measured. […] (human embryonic kidney) cells stably transfected with human TRPV1 are grown in 15 ml growth medium [high glucose DMEM (Dulbecco's Modification of Eagle's Medium) supplemented with 10% FBS (fetal bovine serum), 100 μg/ml Penicillin/streptomycin, 100 μg/ml G418] in a 75 Cm^2 flask for 3 days at 33° C. in a mammalian cell culture incubator set at 5% CO2. Cells are detached with addition of 10 ml of PBS (phosphate buffered saline) by hand shaking gently. Cells are transferred to a 50 ml tube and centrifuged at 850 rpm for 3 minutes to remove PBS. After centrifugation, a pellet of cells is formed in the bottom of the tube separating them from the supernatant solution. The supernatant is discarded and the cell pellet is suspended in 1 ml of fresh growth medium to which 5 μl (12.5 μg) of Fluo-4 AM (Molecular Probes, Inc.) calcium indicator is added and incubated for 30 min with gentle shaking. Fluo-4 is a fluorescent dye used for quantifying cellular Ca^2+ concentrations in the 100 nM to 1 microM range. At the end of the 30 minutes, 45 ml of assay buffer [1×HBSS (Hank's Balanced Salt Solution), 20 mM HEPES (4-(2-Hydroxyethyl)-1-piperazineethanesulfonic acid)] is added to wash cells and the resulting combination is then centrifuged at 850 rpm for 3 minutes to remove excess buffer and Fluo-4 AM calcium indicator.
The pellet cells are re-suspended in 10 ml assay buffer and 90 μl aliquots (˜50,000 cells) per well delivered to a 96-well assay plate containing 10 μl of test compounds (1 mM in assay buffer, final concentration 100 μM) or buffer control and incubated at room temperature for 30 minutes. After 30 minutes, the plate is placed into a fluorometric imaging plate reader (FLIPR^384 from Molecular Devices) and basal fluorescence recorded (excitation wave length 488 nm and emission wave length 510 nm). The FLIPR assay is an accepted method for detecting changes in intracellular calcium concentration. Then 20 μl of the molecule being tested as a TRPV1 activator is added and fluorescence recorded. For determining the direct effect of test compounds on TRPV1, fluorescence is measured immediately after addition of each compound. Additional discussion of the FLIPR method can be found in Smart et al., Characterization using FLIPR of human vanilloid VR1 receptor pharmacology, European Journal of Pharmacology 417, 51-58 (2001) and Liu et al., Development and validation of a platelet calcium flux assay using a fluorescent imaging plate reader, Analytical Biochemistry 357, 216-224 (2006).
In a separate test, the TRPV1 activator (VBE) and the enhancer are added together. […] See the chart below.

Assay [4] can be described thus: Consumer Test I: panelists brush with dentifrice and rate bothersome and bad aftertaste. As to conditions: in dentifrice. In kind it is in vivo, human. The method, then:
In order to show the effect of the addition of a TRPV1 activator and/or Vanitrope on the perception of taste in an oral care composition, the following compositions are made and given to consumers to sample.
The base of the control dentifrice (i.e. everything but the flavor) is made via vacuum mixing. The flavor is added in a second step my speed mixing to complete the control. The additional compositions are then made by speed mixing into the control base the TRPV1 activator and/or vanitrope plus flavor at the stated levels. The samples are then placed in tubes and delivered to the testing facility.
At the testing facility, panelists are provided with a generic brush with 1.0 g of toothpaste. Each panelist has an individual sink, mirror, disposable cup and paper towels. They are asked to brush as they normally would at home. Before and after brushing the panelist will answer a series of questions relating to their experience with the toothpaste. The panelists are asked to comment on their experience right after brushing and then at each hour interval for three hours. The comments from the consumers are translated into numerical values for comparison. The results for the above compositions as it related to bothersome and bad aftertaste are shown below.
Also included in the above testing are combinations of TRPV1 activators and/or vanitrope. The formulations for these tests are below and the control is the same as that listed above.

The target of assay [5] is T1, TRPV1. In words: FLIPR calcium flux assay for TRPV1 activation in transfected HEK cells. In kind it is cell-based. The procedure:
The term “TRPV1 activator” as used herein refers to any component which at a concentration of 1 mM gives a calcium flux count of at least 1000 counts above the background level of calcium present in the cell according to the FLIPR method as discussed herein. The term “count” is defined as the change in fluorescence of the transfected cell lines due to the influx of calcium across the cell membrane, which reacts with the calcium sensitive dye present within the cells.
In order to determine whether TRPV1 is activated, the intracellular calcium ion (Ca^+2) levels in TRPV1 receptors is measured. […] (human embryonic kidney) cells stably transfected with human TRPV1 are grown in 15 ml growth medium [high glucose DMEM (Dulbecco's Modification of Eagle's Medium) supplemented with 10% FBS (fetal bovine serum), 100 μg/ml Penicillin/streptomycin, 100 μg/ml G418] in a 75 Cm^2 flask for 3 days at 33° C. in a mammalian cell culture incubator set at 5% CO2. Cells are detached with addition of 10 ml of PBS (phosphate buffered saline) by hand shaking gently. Cells are transferred to a 50 ml tube and centrifuged at 850 rpm for 3 minutes to remove PBS. […] Fluo-4 is a fluorescent dye used for quantifying cellular Ca^2+ concentrations in the 100 nM to 1 microM range. […]
The pellet cells are re-suspended in 10 ml assay buffer and 90 μl aliquots (˜50,000 cells) per well delivered to a 96-well assay plate containing 10 μl of test compounds (1 mM in assay buffer, final concentration 100 μM) or buffer control and incubated at room temperature for 30 minutes. After 30 minutes, the plate is placed into a fluorometric imaging plate reader (FLIPR^384 from Molecular Devices) and basal fluorescence recorded (excitation wave length 488 nm and emission wave length 510 nm). […] Then 20 μl of the molecule being tested as a TRPV1 activator is added and fluorescence recorded. For determining the direct effect of test compounds on TRPV1, fluorescence is measured immediately after addition of each compound. […]

Setting [6] is: both bothersome and bad aftertaste, each of hours 1-3.

T1 sequence (Q8NER1 whole entry): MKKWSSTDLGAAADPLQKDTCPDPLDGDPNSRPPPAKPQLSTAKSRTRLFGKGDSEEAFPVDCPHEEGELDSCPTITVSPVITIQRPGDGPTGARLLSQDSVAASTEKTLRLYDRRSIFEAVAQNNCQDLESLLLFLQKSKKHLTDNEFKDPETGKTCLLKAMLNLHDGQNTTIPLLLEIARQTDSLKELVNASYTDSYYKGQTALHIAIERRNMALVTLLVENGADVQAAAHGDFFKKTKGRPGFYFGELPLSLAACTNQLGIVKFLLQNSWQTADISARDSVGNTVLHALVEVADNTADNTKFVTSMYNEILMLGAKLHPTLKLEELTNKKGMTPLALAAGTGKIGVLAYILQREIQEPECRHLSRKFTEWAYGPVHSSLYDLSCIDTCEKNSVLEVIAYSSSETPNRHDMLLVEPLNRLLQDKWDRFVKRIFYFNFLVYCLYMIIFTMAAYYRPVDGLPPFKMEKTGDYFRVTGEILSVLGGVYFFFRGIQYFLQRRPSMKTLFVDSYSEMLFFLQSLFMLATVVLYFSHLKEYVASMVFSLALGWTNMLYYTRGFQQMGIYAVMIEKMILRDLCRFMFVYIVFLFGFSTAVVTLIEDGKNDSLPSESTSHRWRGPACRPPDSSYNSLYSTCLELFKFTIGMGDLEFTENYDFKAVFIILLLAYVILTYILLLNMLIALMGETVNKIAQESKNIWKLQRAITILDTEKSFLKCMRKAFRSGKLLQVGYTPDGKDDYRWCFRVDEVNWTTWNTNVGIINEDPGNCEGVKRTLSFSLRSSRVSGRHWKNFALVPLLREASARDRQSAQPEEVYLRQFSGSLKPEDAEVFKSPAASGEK

As for `CCCCCCCO` [Heptyl Alcohol], at TRPV1 [1], the “% Enhancement” value turned out to be 10.16%. As to `C/C=C\C(=O)C1C(C)=CCCC1(C)C` (stereo not drawn) [Alpha-Damascone], on TRPV1 [1], the “% Enhancement” value is reported as 28.1%. The same measure, in the same setting: under `CCCC(=O)OC/C=C(\C)CCC=C(C)C` [Geranyl Butyrate] stands 23.46%. Still for that read-out and setting: in the case of `C=C(C)C1CC=C(C)C(OC(C)=O)C1` (centres unmarked) [carvyl acetate] it was 12.83%.

Consider `C=CCS[S+]([O-])CC=C` (centres unmarked) [Allicin], for which, in assay [2] (burning sensation), the “'Hotness' (as log Scoville Units)” value worked out at 4.0 log Scoville Units. For the compound `COc1cc(CNC(=O)CCCCCC(C)C)ccc1O` [NorhydroCapsaicin], the “'Hotness' (as log Scoville Units)” value in assay [2] stood at 7.0 log Scoville Units. Take Farnesene: the “% Enhancement” value on TRPV1 [1] was 12.33%. Further, the “Percent Enhancement when combined with 3.5 microMolar VBE” value was found to be 25% at TRPV1 [3] (enhancer level 50 microMolar), 100% at TRPV1 [3] (enhancer level 100 microMolar), 175% on TRPV1 [3] (enhancer level 200 microMolar) and 400% on TRPV1 [3] (enhancer level 1000 microMolar). As to `CCCCC[C@H](O)CC(=O)CCc1ccc(O)c(OC)c1` [6-Gingerol], in assay [2] (burning sensation), the “'Hotness' (as log Scoville Units)” value amounted to 4.9 log Scoville Units. Still for that read-out and setting: under `CCCCC/C=C/C(=O)CCc1ccc(O)c(OC)c1` [6-Shoagol] stands 5.1 log Scoville Units.

As to `O=Cc1ccco1` [Furfural], on TRPV1 [1], the “% Enhancement” value was found to be 19.29%. Take `COC(Cc1ccccc1)OC` [Phenylacetaldehyde Dimethyl Acetal]: the “% Enhancement” value at TRPV1 [1] is 14.07%. In the case of `CC(=O)OC(C)(C)Cc1ccccc1` [Alpha, Alpha Dimethylphenethyl Acetate], the “% Enhancement” value on TRPV1 [1] came out at 14.64%. For the same compound, the “Percent Enhancement when combined with 3.5 microMolar VBE” value on TRPV1 [3] (enhancer level 50 microMolar) worked out at 300%; on TRPV1 [3] (enhancer level 100 microMolar) it was 310%; at TRPV1 [3] (enhancer level 200 microMolar), 410%; at TRPV1 [3] (enhancer level 1000 microMolar), 420%. On to `CC(=O)/C=C/C1C(C)=CCCC1(C)C` (stereo not drawn) [Alpha-Ionone], for which the “% Enhancement” value at TRPV1 [1] is 18.84%. Still for that read-out and setting: under `CCC/C=C/COC(C)=O` [Trans-2-Hexenyl Acetate] stands 10.62%. With `COc1cc(CCC(C)=O)ccc1O` [Zingerone], in assay [2] (burning sensation), the “'Hotness' (as log Scoville Units)” value is below 4.0 log Scoville Units. In assay [4] (setting [6]), the taste versus control result is recorded as “improved taste over the control”. With `CCCCCCC(C)=O` [2-Octanone], the “% Enhancement” value at TRPV1 [1] worked out at 19.87%.

Regarding `C/C=C/C(=O)C1C(C)C=CCC1(C)C` (centres unmarked) [delta-damascone], the “% Enhancement” value on TRPV1 [1] is given as 28.53%. Turning to `COc1cc(CNC(=O)CCCCC/C=C/C(C)C)ccc1O` [HomoCapsaicin], the “'Hotness' (as log Scoville Units)” value in assay [2] is 6.9 log Scoville Units. Turning to `COc1cc(CNC(=O)CCCC/C=C/C(C)C)ccc1O` [Capsaicin, reference compound], the “'Hotness' (as log Scoville Units)” value in assay [2] (burning sensation) came to 7.2 log Scoville Units. The “activation level (calcium flux)” value at TRPV1 [5] (concentration of 300 nM) is listed as “about 14127.16 calcium ions”. Turning to `CC(C)=CCCC(C)C=O` (centres unmarked) [2,6-Dimethyl-5-Heptenal], the “% Enhancement” value on TRPV1 [1] turned out to be 17.5%. For `C/C=C/c1ccc(OCC)c(O)c1` [vanitrope], on TRPV1 [5], the “direct activation of TRPV1 (TRPV1 activator or not)” value was “not considered to be a TRPV1 activator”. For the same compound, the taste versus control result in assay [4] (hours 1-3 for bothersome and hours 1-2 for bad aftertaste) is recorded as “taste improvement”. Take `O=P([O-])([O-])OP(=O)([O-])[O-].[Na+].[Na+].[Na+].[Na+]` [Tetrasodium Pyrophosphate]: at TRPV1 [1], the “% Enhancement” value is on record as 15.62%.

Take `C=C(OCC)C1C(C)(C)CC(=O)CC1(C)C` [Kephalis]: on TRPV1 [1], the “% Enhancement” value came out at 13.74%. With `COc1cc(CNC(=O)CCCCCCCC(C)C)ccc1O` [HomodihydroCapsaicin], the “'Hotness' (as log Scoville Units)” value in assay [2] is on record as 6.9 log Scoville Units. As for `CCCCOCc1ccc(O)c(OC)c1` [Vanillyl Butyl Ether], in assay [2] (burning sensation), the “'Hotness' (as log Scoville Units)” value was 5.7 log Scoville Units. Besides, the “activation level (calcium flux)” value on TRPV1 [5] (concentration of 1 mM) is on record as “approximately 14942.84 calcium ions”. Further, the taste versus control entry in assay [4] (setting [6]) is given as “improved taste over the control”.
